In article PMC3342448 (Cancer Research, 2012):

Experiments:
cellular MT1-MMP = cellular MT1-MMP (Homo sapiens, UniProt P50281); assay: Gelatin zymography of MMP-2 activation by 184B5-MT cells; format: cell-based; conditions: 184B5-MT cells with proMMP-2, compound 1–100 μM
184B5-MT cells [1] = assay: Transwell migration assay on COL-I, 184B5-MT cells; format: cell-based, Human; conditions: compounds 10–100 μM, 16–18 h
MMP-2 = molecular target: T1, MMP-2 (Homo sapiens, UniProt P08253); assay: Catalytic activity of MMP-2; format: biochemical; conditions: not shown
T1 sequence (P08253 110-660): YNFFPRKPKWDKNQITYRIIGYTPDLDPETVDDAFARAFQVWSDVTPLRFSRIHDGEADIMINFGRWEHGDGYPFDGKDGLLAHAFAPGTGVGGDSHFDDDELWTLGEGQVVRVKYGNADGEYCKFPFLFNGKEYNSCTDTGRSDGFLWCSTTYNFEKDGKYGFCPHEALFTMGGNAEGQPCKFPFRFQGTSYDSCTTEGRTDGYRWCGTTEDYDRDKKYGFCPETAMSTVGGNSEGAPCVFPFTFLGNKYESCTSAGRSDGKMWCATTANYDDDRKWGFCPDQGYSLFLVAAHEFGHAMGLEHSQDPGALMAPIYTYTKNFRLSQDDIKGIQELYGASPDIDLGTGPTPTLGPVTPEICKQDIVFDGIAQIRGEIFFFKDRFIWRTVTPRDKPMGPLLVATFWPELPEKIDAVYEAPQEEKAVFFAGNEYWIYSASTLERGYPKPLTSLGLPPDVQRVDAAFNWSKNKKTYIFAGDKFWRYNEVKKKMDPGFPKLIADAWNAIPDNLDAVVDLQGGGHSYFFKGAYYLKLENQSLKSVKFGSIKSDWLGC

MCF7-β3/MT xenografts = assay: MCF7-β3/MT tumor xenografts in mice; format: in vivo
MDA-MB-231 cells = assay: Transwell migration assay on COL-I, MDA-MB-231 cells; format: cell-based, Human; conditions: compounds 100 μM
[2] = Solubility in aqueous solutions; format: physicochemical; conditions: 400 μM stock in PBS was highest reachable
CAT = CAT (Homo sapiens, UniProt P50281); assay: Cleavage of fluorescent peptide by MT1-MMP catalytic domain; format: biochemical; conditions: CAT 10 nM, fluorescent substrate 10 μM
MCF7-β3/MT cells [3] = assay: COL-I degradation assay, MCF7-β3/MT cells; format: cell-based, Human; conditions: compound 100 μM, 3 days
184B5-MT cells [4] = assay: Cell adhesion assay on COL-I and Matrigel, 184B5-MT cells; format: cell-based, Human; conditions: compounds 25–100 μM, 1 h adhesion
MT1-MMP = MT1-MMP (Homo sapiens, UniProt P50281); assay: Gelatin zymography of MCF7-β3/MT tumor extracts; format: in vivo; conditions: tumor extracts of mice treated 0.5 mg/kg intratumoral
MCF7-β3/MT cells [5] = assay: Cell viability; format: cell-based, Human; conditions: 400 μM, 6 h
MT1-MMP homodimerization = MT1-MMP homodimerization (Homo sapiens, UniProt P50281); assay: MT1-MMP dimerization test; format: cell-based; conditions: compounds 100 μM, 24 h, MCF7-MT-V5 cells transfected with MT1-MMP-FLAG

Compound: CCCC(C)NC(=O)c1ccc(Cl)c(Cl)c1 (stereo not drawn) [compound 9]
- catalytic function of cellular MT1-MMP (MMP-2 activation) (cellular MT1-MMP): did not inhibit
- migration of 184B5-MT cells on COL-I (184B5-MT cells [1]): repressed migration of 184B5-MT cells on COL-I in a dose-dependent manner
- catalytic activity of MMP-2 (MMP-2): did not inhibit
- physical damage and necrosis in tumors after injections (MCF7-β3/MT xenografts; 0.5 mg/kg intratumoral): no physical damage and necrosis
- tumor phenotype (MCF7-β3/MT xenografts; 0.5 mg/kg intratumoral injections): caused a fibrotic tumor phenotype
- xenograft angiogenesis (H&E staining) (MCF7-β3/MT xenografts; 0.5 mg/kg intratumoral, compared with control mice): did not reveal any significant effect
- immunoreactivity and levels of COL-I in tumors (MCF7-β3/MT xenografts; 0.5 mg/kg intratumoral, experimental versus control): significantly enhanced
- migration of MDA-MB-231 cells (MDA-MB-231 cells): did not show any inhibitory effect
- solubility [2]: limited solubility
- effect on cleavage activity of CAT (CAT): did not affect the cleavage activity
- collagenolytic activity (COL-I degradation) in MCF7-β3/MT cells (MCF7-β3/MT cells [3]): dramatically reduced
- adhesion of 184B5-MT on Matrigel and COL-I substrates (184B5-MT cells [4]): did not affect cell adhesion
- ability of MT1-MMP to activate MMP-2 in tumors (MT1-MMP): did not affect
- cytotoxicity in MCF7-β3/MT cells (MCF7-β3/MT cells [5]): did not demonstrate any cytotoxicity
- levels of co-precipitated MT1-MMP-V5 in pull-down samples (homodimerization) (MT1-MMP homodimerization): significantly reduced
